# Measured values taken from patent publication US20090093469A1, “Phenylaminopropanol Derivatives and Methods of Their Use” (WYETH, priority 2004, published 2009).
# Where a name gives a salt, the structure may show the parent alone.
# Target: T1, hNET (Homo sapiens, UniProt P23975)
# T1 construct: expressed in transfected cells
# Experiment: Norepinephrine (NE) uptake assay in MDCK-Net6 cells stably transfected with human hNET
# Assay type: cell-based
# Details: MDCK-Net6, read-out: % Inhibition @ 1 μM (hNET)
# T1 sequence (P23975 whole entry): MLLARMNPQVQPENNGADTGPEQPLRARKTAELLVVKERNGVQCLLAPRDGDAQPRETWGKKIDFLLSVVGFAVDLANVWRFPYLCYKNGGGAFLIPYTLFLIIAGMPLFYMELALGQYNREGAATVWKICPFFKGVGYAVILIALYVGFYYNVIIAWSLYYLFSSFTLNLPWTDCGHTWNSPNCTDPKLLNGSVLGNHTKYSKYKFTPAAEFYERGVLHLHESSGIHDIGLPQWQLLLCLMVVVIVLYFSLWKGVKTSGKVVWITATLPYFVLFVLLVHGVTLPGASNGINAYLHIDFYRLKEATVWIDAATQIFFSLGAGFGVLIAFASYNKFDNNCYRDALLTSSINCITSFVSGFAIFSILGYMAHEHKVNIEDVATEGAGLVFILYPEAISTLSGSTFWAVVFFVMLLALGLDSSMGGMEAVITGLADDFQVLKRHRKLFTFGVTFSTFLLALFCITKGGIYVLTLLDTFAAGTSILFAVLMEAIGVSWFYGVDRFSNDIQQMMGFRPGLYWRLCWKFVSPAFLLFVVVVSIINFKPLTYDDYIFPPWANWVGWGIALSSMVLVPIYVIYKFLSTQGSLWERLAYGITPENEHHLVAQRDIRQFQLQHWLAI
row,SMILES,inhibition at 1 µM [%]
1,"CNC[C@@H](O)[C@H](c1ccccc1)n1c(=O)n(C(C)C)c2ccccc21 [Example 203, 1-[(1S,2R)-2-hydroxy-3-(methylamino)-1-phenylpropyl]-3-isopropyl-1,3-dihydro-2H-benzimidazol-2-one hydrochloride]",98.9
2,"CNC[C@@H](O)[C@H](c1ccccc1)n1ccc2cc(F)ccc21 [Example 75, (1S,2R)-1-(5-fluoro-1H-indol-1-yl)-3-(methylamino)-1-phenylpropan-2-ol hydrochloride]",88.4
3,"CNC[C@@H](O)[C@H](c1ccccc1Cl)n1ccc2ccccc21 [Example 38, (1S,2R)-1-(2-chlorophenyl)-1-(1H-indol-1-yl)-3-(methylamino)propan-2-ol hydrochloride]",71.9

# Same assay, conditions: test compound 1 μM; [3H]NE uptake, MDCK-Net6 cells; read-out: % Inhibition @ 1 μM (hNET)
row,SMILES,inhibition at 1 µM [%]
1,"CNC[C@@H](O)[C@H](c1ccc(F)c(F)c1)n1ccc2ccccc21 [Example 140, (1S,2R)-1-(3,4-difluorophenyl)-1-(1H-indol-1-yl)-3-(methylamino)propan-2-ol hydrochloride]",96.7
2,"CNC[C@@H](O)[C@@H](c1cccs1)n1ccc2ccccc21 [Example 102, (1S,2R)-1-(1H-indol-1-yl)-3-(methylamino)-1-(2-thienyl)propan-2-ol hydrochloride]",95.3
3,"CNC[C@H](O)[C@@H](c1ccc(OC(F)(F)F)cc1)n1ccc2ccccc21 (single isomer, unassigned) [Example 41, hydrochloride]",32.4
4,"CNC[C@@H](O)[C@H](c1cccc(C(F)(F)F)c1)N1CCc2ccccc21 [Example 138, (1S,2R)-1-(2,3-dihydro-1H-indol-1-yl)-3-(methylamino)-1-[3-(trifluoromethyl)phenyl]propan-2-ol hydrochloride]",97.9
5,"CNC[C@@H](O)[C@H](c1ccccc1)N1C(=O)C2(CCC2)c2ccccc21 [Example 107, 1′-[(1S,2R)-2-hydroxy-3-(methylamino)-1-phenylpropyl]spiro[cyclo-butane-1,3′-indol]-2′(1′H)-one hydrochloride]",96.6
6,"CC(C)NC[C@H](O)[C@@H](c1ccccc1)n1ccc2ccccc21 (racemic) [Example 6, (1RS,2SR)-1-(1H-indol-1-yl)-3-(isopropylamino)-1-phenylpropan-2-ol hydrochloride]",13.1
7,"CNC[C@@H](O)[C@H](c1ccccc1)n1ccc2ccc(OC)cc21 [Example 79, (1S,2R)-1-(6-methoxy-1H-indol-1-yl)-3-(methylamino)-1-phenyl propan-2-ol hydrochloride]",66
8,"O[C@@H]([C@@H]1CCCN1)[C@@H](c1cccc(F)c1)n1ccc2ccccc21 [Example 105, (1S,2R)-2-(3-fluorophenyl)-2-(1H-indol-1-yl)-1-[(2S)-pyrrolidin-2-yl]ethanol hydrochloride]",92.6

# Same assay, conditions: test compound 10 μM (stated in cell); [3H]NE uptake, MDCK-Net6 cells
row,SMILES,inhibition at 10 µM [%]
1,"CN1CCN(C[C@H](O)[C@@H](c2ccccc2)n2ccc3cc(F)ccc32)CC1 (racemic) [Example 2, (1RS,2SR)-1-(5-fluoro-1H-indol-1-yl)-3-(4-methylpiperazin-1-yl)-1-phenylpropan-2-ol dihydrochloride]",66.5
